This assay deals with MV-4-11 cells. Description: Gene expression microarray analysis (Affymetrix PrimeView) and GSEA. The class given is cell-based, human. The arrangement: RFU PODN (11730768_x_at) / Fold change /veh PODN (11730768_x_at) / RFU LINC00158 (11744669_a_at) / Fold change /veh LINC00158 (11744669_a_at) / RFU DUSP10 (11751237_a_at) / Fold change /veh DUSP10 (11751237_a_at) / RFU ID3 (11757404_x_at) / Fold change /veh ID3 (11757404_x_at) / RFU PLEKHG5 (11737974_s_at) / Fold change /veh PLEKHG5 (11737974_s_at) / RFU LRRC4B (11730491_at) / Fold change /veh LRRC4B (11730491_at) / RFU GIMAP4 (11747438_a_at) / Fold change /veh GIMAP4 (11747438_a_at) / RFU KRT8 (11758183_x_at) / Fold change /veh KRT8 (11758183_x_at) / RFU CNN1 (11734310_a_at) / Fold change /veh CNN1 (11734310_a_at) / RFU VPS37D (11726825_at) / Fold change /veh VPS37D (11726825_at) / RFU C10orf10 (11716522_x_at) / Fold change /veh C10orf10 (11716522_x_at) / RFU KIR2DL2 /// KIR2DL4 /// KIR2DL5A /// KIR2DL5B /// KIR2DS1 /// KIR2DS2 /// KIR2DS3 /// KIR2DS4 /// KIR3DL3 /// KIR3DL3 /// KIR3DS1 (11738374_at) / Fold change /veh KIR2DL2 /// KIR2DL4 /// KIR2DL5A /// KIR2DL5B /// KIR2DS1 /// KIR2DS2 /// KIR2DS3 /// KIR2DS4 /// KIR3DL3 /// KIR3DL3 /// KIR3DS1 (11738374_at) / RFU C1QL1 (11718748_at) / Fold change /veh C1QL1 (11718748_at) / RFU TMPRSS4 (11747572_a_at) / Fold change /veh TMPRSS4 (11747572_a_at) / RFU HAMP (11756126_x_at) / Fold change /veh HAMP (11756126_x_at) / RFU RNFT2 (11725882_a_at) / Fold change /veh RNFT2 (11725882_a_at) / RFU NR4A2 (11747474_a_at) / Fold change /veh NR4A2 (11747474_a_at) / RFU ABCC12 (11746883_a_at) / Fold change /veh ABCC12 (11746883_a_at) / RFU TMEM136 (11760407_x_at) / Fold change /veh TMEM136 (11760407_x_at) / RFU CLDN22 /// WWC2 (11732394_at) / Fold change /veh CLDN22 /// WWC2 (11732394_at) / RFU HLA-DPB1 (11760878_x_at) / Fold change /veh HLA-DPB1 (11760878_x_at) / RFU SPINT1 (11716480_a_at) / Fold change /veh SPINT1 (11716480_a_at) / RFU GAP43 (11754022_s_at) / Fold change /veh GAP43 (11754022_s_at) / RFU A4GNT (11735810_at) / Fold change /veh A4GNT (11735810_at) / RFU PRB3 (11715151_x_at) / Fold change /veh PRB3 (11715151_x_at) / RFU TUBB4B (11761932_at) / Fold change /veh TUBB4B (11761932_at) / RFU CAPN14 (11732068_a_at) / Fold change /veh CAPN14 (11732068_a_at) / RFU TMCC2 (11721928_a_at) / Fold change /veh TMCC2 (11721928_a_at) / RFU IRGQ (11745062_a_at) / Fold change /veh IRGQ (11745062_a_at) / RFU FAM174B (11720279_a_at) / Fold change /veh FAM174B (11720279_a_at) / RFU TMPRSS4 (11748680_a_at) / Fold change /veh TMPRSS4 (11748680_a_at) / RFU FAM212B (11763350_a_at) / Fold change /veh FAM212B (11763350_a_at) / RFU PLEKHG5 (11743358_a_at) / Fold change /veh PLEKHG5 (11743358_a_at) / RFU ZSCAN30 (11745921_a_at) / Fold change /veh ZSCAN30 (11745921_a_at) / RFU CMKLR1 (11741424_a_at) / Fold change /veh CMKLR1 (11741424_a_at) / RFU LOC101060620 /// MAPK8IP1 (11723275_at) / Fold change /veh LOC101060620 /// MAPK8IP1 (11723275_at) / RFU SPTSSB (11747773_x_at) / Fold change /veh SPTSSB (11747773_x_at) / RFU PRSS12 (11739890_at) / Fold change /veh PRSS12 (11739890_at) / RFU BIN1 (11741810_x_at) / Fold change /veh BIN1 (11741810_x_at) / RFU WNT11 (11732464_a_at) / Fold change /veh WNT11 (11732464_a_at) / RFU C10orf10 (11716521_a_at) / Fold change /veh C10orf10 (11716521_a_at) / RFU C5orf56 (11738089_at) / Fold change /veh C5orf56 (11738089_at) / RFU CYB561 (11721691_x_at) / Fold change /veh CYB561 (11721691_x_at) / RFU ANKRD19P (11752326_a_at) / Fold change /veh ANKRD19P (11752326_a_at) / RFU OR2T12 /// OR2T33 /// OR2T8 (11738714_s_at) / Fold change /veh OR2T12 /// OR2T33 /// OR2T8 (11738714_s_at) / RFU VCAN (11748164_a_at) / Fold change /veh VCAN (11748164_a_at) / RFU JSRP1 (11732532_at) / Fold change /veh JSRP1 (11732532_at) / RFU KRTAP10-11 (11738290_x_at) / Fold change /veh KRTAP10-11 (11738290_x_at) / RFU MYO3A (11730013_a_at) / Fold change /veh MYO3A (11730013_a_at) / RFU EBF3 (11725865_a_at) / Fold change /veh EBF3 (11725865_a_at) / RFU CAMK2N1 (11719241_x_at) / Fold change /veh CAMK2N1 (11719241_x_at) / RFU C5orf56 (11738088_a_at) / Fold change /veh C5orf56 (11738088_a_at) / RFU OLFML3 (11715873_a_at) / Fold change /veh OLFML3 (11715873_a_at) / RFU LOC100653217 /// NTM (11731650_a_at) / Fold change /veh LOC100653217 /// NTM (11731650_a_at) / RFU MAPK11 (11762145_a_at) / Fold change /veh MAPK11 (11762145_a_at) / RFU FIZ1 (11724087_x_at) / Fold change /veh FIZ1 (11724087_x_at) / RFU OASL (11726364_x_at) / Fold change /veh OASL (11726364_x_at) / RFU SOX15 (11748057_x_at) / Fold change /veh SOX15 (11748057_x_at) / RFU CD79A (11719716_a_at) / Fold change /veh CD79A (11719716_a_at) / RFU HIST1H1D (11736915_at) / Fold change /veh HIST1H1D (11736915_at) / RFU CASKIN2 (11723855_a_at) / Fold change /veh CASKIN2 (11723855_a_at) / RFU LOC730098 (11760151_x_at) / Fold change /veh LOC730098 (11760151_x_at) / RFU OR4N2 (11742367_at) / Fold change /veh OR4N2 (11742367_at) / RFU PRRT2 (11749266_a_at) / Fold change /veh PRRT2 (11749266_a_at) / RFU SNX32 (11753110_a_at) / Fold change /veh SNX32 (11753110_a_at) / RFU CDHR5 (11726645_a_at) / Fold change /veh CDHR5 (11726645_a_at) / RFU RCAN1 (11760418_a_at) / Fold change /veh RCAN1 (11760418_a_at) / RFU FAM167A (11723789_a_at) / Fold change /veh FAM167A (11723789_a_at) / RFU FAM26E (11764081_at) / Fold change /veh FAM26E (11764081_at) / RFU ISYNA1 (11749810_s_at) / Fold change /veh ISYNA1 (11749810_s_at) / RFU ACY1 (11761880_at) / Fold change /veh ACY1 (11761880_at) / RFU 11764098_at / Fold change /veh 11764098_at / RFU SAMD14 (11745864_x_at) / Fold change /veh SAMD14 (11745864_x_at) / RFU NPB (11741838_a_at) / Fold change /veh NPB (11741838_a_at) / RFU TMPRSS6 (11731388_a_at) / Fold change /veh TMPRSS6 (11731388_a_at) / RFU KRTAP10-2 (11738614_at) / Fold change /veh KRTAP10-2 (11738614_at) / RFU ARHGAP8 /// PRR5-ARHGAP8 (11727945_x_at) / Fold change /veh ARHGAP8 /// PRR5-ARHGAP8 (11727945_x_at) / RFU KRTAP5-7 /// NADSYN1 (11734609_at) / Fold change /veh KRTAP5-7 /// NADSYN1 (11734609_at) / RFU RASL12 (11751679_a_at) / Fold change /veh RASL12 (11751679_a_at) / RFU CDKN2B (11736163_a_at) / Fold change /veh CDKN2B (11736163_a_at) / RFU PRF1 (11729649_at) / Fold change /veh PRF1 (11729649_at) / RFU, ZNF638 /// ZNF638-IT1 / Fold change vs veh, ZNF638 /// ZNF638-IT1 / RFU, PANK3 / Fold change vs veh, PANK3 / RFU, SH3YL1 / Fold change vs veh, SH3YL1 / RFU, ZEB2 / Fold change vs veh, ZEB2 / RFU, NRIP1 / Fold change vs veh, NRIP1 / RFU, PTTG1IP / Fold change vs veh, PTTG1IP / RFU, CAPN2 / Fold change vs veh, CAPN2 / RFU, MED14 / Fold change vs veh, MED14 / RFU, SNORA58 / Fold change vs veh, SNORA58 / RFU, C1orf63 / Fold change vs veh, C1orf63 / RFU, LRRFIP1 / Fold change vs veh, LRRFIP1 / RFU, NDUFAF7 / Fold change vs veh, NDUFAF7 / RFU, SLC12A2 / Fold change vs veh, SLC12A2 / RFU, IBTK / Fold change vs veh, IBTK / RFU, ESF1 / Fold change vs veh, ESF1 / Fold change vs veh, TMEM50B / RFU, TAOK1 / Fold change vs veh, TAOK1 / RFU, ACBD3 / Fold change vs veh, ACBD3 / RFU, TMA16 / Fold change vs veh, TMA16 / RFU, RWDD3 / Fold change vs veh, RWDD3 / RFU, BCAT1 / Fold change vs veh, BCAT1 / RFU, EDEM3 / Fold change vs veh, EDEM3 / RFU, TMEM33 / Fold change vs veh, TMEM33 / RFU, WDR75 / Fold change vs veh, WDR75 / RFU, AHCTF1 / Fold change vs veh, AHCTF1 / RFU, TFRC / Fold change vs veh, TFRC / RFU, ZDHHC17 / Fold change vs veh, ZDHHC17 / RFU, NOM1 / Fold change vs veh, NOM1 / RFU, ARL8B / Fold change vs veh, ARL8B / RFU, ZBTB11 / Fold change vs veh, ZBTB11 / RFU, TAMM41 / Fold change vs veh, TAMM41 / RFU, KIAA1704 /// LOC100996395 / Fold change vs veh, KIAA1704 /// LOC100996395 / RFU, ING1 / Fold change vs veh, ING1 / RFU, TRMT61B / Fold change vs veh, TRMT61B / RFU, FUBP3 / Fold change vs veh, FUBP3 / RFU, TP53 / Fold change vs veh, TP53 / RFU, TNKS2 / Fold change vs veh, TNKS2 / RFU, ZFP14 / Fold change vs veh, ZFP14 / RFU, ACTR2 / Fold change vs veh, ACTR2 / RFU, PPP3R1 / Fold change vs veh, PPP3R1 / RFU, PIK3R1 / Fold change vs veh, PIK3R1 / RFU, HNRNPA1 / Fold change vs veh, HNRNPA1 / RFU, RNF170 / Fold change vs veh, RNF170 / RFU, ZNF28 / Fold change vs veh, ZNF28 / RFU, RNGTT / Fold change vs veh, RNGTT / RFU, OGT / Fold change vs veh, OGT / RFU, BRD1 / Fold change vs veh, BRD1 / RFU, MARS / Fold change vs veh, MARS / RFU, ZNF655 / Fold change vs veh, ZNF655 / RFU, FAHD1 / Fold change vs veh, FAHD1 / RFU, BDP1 / Fold change vs veh, BDP1 / RFU, LRRCC1 / Fold change vs veh, LRRCC1 / RFU, ARID1A / Fold change vs veh, ARID1A / RFU, ZNF146 / Fold change vs veh, ZNF146 / RFU, ZNF330 / Fold change vs veh, ZNF330 / RFU, GPN3 / Fold change vs veh, GPN3 / RFU, C9orf123 / Fold change vs veh, C9orf123 / RFU, N4BP2L2 / Fold change vs veh, N4BP2L2 / RFU, ARFIP1 / Fold change vs veh, ARFIP1 / RFU, FAM179B / Fold change vs veh, FAM179B / RFU, BCL10 / Fold change vs veh, BCL10 / RFU, UHRF1BP1L / Fold change vs veh, UHRF1BP1L / RFU, BET1 / Fold change vs veh, BET1 / RFU, CNOT2 / Fold change vs veh, CNOT2 / RFU, ZNF268 / Fold change vs veh, ZNF268 / Fold change vs veh, ZNF507 / RFU, DGCR2 / Fold change vs veh, DGCR2 / RFU, WDSUB1 / Fold change vs veh, WDSUB1 / Fold change vs veh, HSP90B1 /// MIR3652 / RFU, ADSS / Fold change vs veh, ADSS / RFU, GK / Fold change vs veh, GK / RFU, ZNF148 / Fold change vs veh, ZNF148 / RFU, TAF9 / Fold change vs veh, TAF9 / RFU, SLC1A5 / Fold change vs veh, SLC1A5 / RFU, SLMO2 / Fold change vs veh, SLMO2 / RFU, ABCC4 / Fold change vs veh, ABCC4 / RFU, LOC101060439 /// RAP1B / Fold change vs veh, LOC101060439 /// RAP1B / RFU, RFX7 / Fold change vs veh, RFX7 / RFU, GTPBP10 / Fold change vs veh, GTPBP10 / RFU, CNEP1R1 / Fold change vs veh, CNEP1R1 / RFU, BIVM-ERCC5 /// ERCC5 / Fold change vs veh, BIVM-ERCC5 /// ERCC5 / RFU, ILF3 / Fold change vs veh, ILF3 / RFU 11762660_at / Fold change /veh 11762660_at / RFU VCAN (11757783_s_at) / Fold change /veh VCAN (11757783_s_at) / RFU DDX43 (11728927_at) / Fold change /veh DDX43 (11728927_at) / RFU KRT8 (11758188_x_at) / Fold change /veh KRT8 (11758188_x_at) / RFU NKD1 (11759106_at) / Fold change /veh NKD1 (11759106_at) / RFU SRD5A1 (11742802_a_at) / Fold change /veh SRD5A1 (11742802_a_at) / RFU TPSAB1 /// TPSB2 (11721975_s_at) / Fold change /veh TPSAB1 /// TPSB2 (11721975_s_at) / RFU GSTM3 (11746129_a_at) / Fold change /veh GSTM3 (11746129_a_at) / RFU IL23R (11737362_x_at) / Fold change /veh IL23R (11737362_x_at) / RFU TMEM51 (11727254_a_at) / Fold change /veh TMEM51 (11727254_a_at) / RFU PIWIL2 (11732686_x_at) / Fold change /veh PIWIL2 (11732686_x_at) / RFU ORM1 (11744905_x_at) / Fold change /veh ORM1 (11744905_x_at) / RFU CCDC152 (11743942_at) / Fold change /veh CCDC152 (11743942_at) / RFU ECM1 (11717891_a_at) / Fold change /veh ECM1 (11717891_a_at) / RFU IL23R (11748794_a_at) / Fold change /veh IL23R (11748794_a_at) / RFU TNFAIP8L3 (11732012_x_at) / Fold change /veh TNFAIP8L3 (11732012_x_at) / RFU MBOAT4 (11741988_at) / Fold change /veh MBOAT4 (11741988_at) / RFU 11764193_at / Fold change /veh 11764193_at / RFU TMEM53 (11763286_at) / Fold change /veh TMEM53 (11763286_at) / RFU MAGEB2 (11727129_at) / Fold change /veh MAGEB2 (11727129_at) / RFU TMEM200A (11744735_a_at) / Fold change /veh TMEM200A (11744735_a_at) / RFU CCDC152 (11751479_a_at) / Fold change /veh CCDC152 (11751479_a_at) / RFU FAM211A (11726209_a_at) / Fold change /veh FAM211A (11726209_a_at) / RFU RGS16 (11746705_a_at) / Fold change /veh RGS16 (11746705_a_at) / RFU VCAN (11755009_s_at) / Fold change /veh VCAN (11755009_s_at) / RFU RHOB (11743442_s_at) / Fold change /veh RHOB (11743442_s_at) / RFU RGS16 (11720943_a_at) / Fold change /veh RGS16 (11720943_a_at) / RFU RGS16 (11720944_at) / Fold change /veh RGS16 (11720944_at) / RFU, VPS4B / Fold change vs veh, VPS4B / RFU, CREB1 / Fold change vs veh, CREB1 / RFU, DNAJC13 / Fold change vs veh, DNAJC13 / RFU, GNAQ / Fold change vs veh, GNAQ / RFU, CDK5R1 / Fold change vs veh, CDK5R1 / RFU, ZRANB3 / Fold change vs veh, ZRANB3 / RFU, CUL4A / Fold change vs veh, CUL4A / RFU, CCNY / Fold change vs veh, CCNY / RFU, UFL1 / Fold change vs veh, UFL1 / RFU, COG3 / Fold change vs veh, COG3 / RFU, DIAPH2 / Fold change vs veh, DIAPH2 / RFU, SKA2 / Fold change vs veh, SKA2 / RFU, AFF3 / Fold change vs veh, AFF3 / RFU, LMF1 / Fold change vs veh, LMF1 / RFU, IPO11 / Fold change vs veh, IPO11 / RFU, DFFB / Fold change vs veh, DFFB / RFU, FOXP1 / Fold change vs veh, FOXP1 / RFU, CARD8 / Fold change vs veh, CARD8 / RFU, STRN3 / Fold change vs veh, STRN3 / RFU, ADK / Fold change vs veh, ADK / RFU, RASSF2 / Fold change vs veh, RASSF2 / RFU, WIPF1 / Fold change vs veh, WIPF1 / RFU, LARP1B / Fold change vs veh, LARP1B / RFU, RASA1 / Fold change vs veh, RASA1 / RFU, RB1 / Fold change vs veh, RB1 / RFU, PPFIA1 / Fold change vs veh, PPFIA1 / RFU, MAT2A / Fold change vs veh, MAT2A / RFU, CCT5 / Fold change vs veh, CCT5 / RFU, WDR92 / Fold change vs veh, WDR92 / RFU, CUX1 / Fold change vs veh, CUX1 / RFU, TTC7A / Fold change vs veh, TTC7A / RFU, TMEM135 / Fold change vs veh, TMEM135 / RFU, DEPTOR / Fold change vs veh, DEPTOR / RFU, CPM / Fold change vs veh, CPM / RFU, DNAJB6 / Fold change vs veh, DNAJB6 / RFU, CACNA2D3 / Fold change vs veh, CACNA2D3 / RFU, DTX4 / Fold change vs veh, DTX4 / RFU, TFCP2 / Fold change vs veh, TFCP2 / RFU, GMCL1 /// GMCL1P1 / Fold change vs veh, GMCL1 /// GMCL1P1 / RFU, AEBP2 / Fold change vs veh, AEBP2 / RFU, SNHG1 /// SNORD22 /// SNORD25 /// SNORD26 /// SNORD27 /// SNORD28 /// SNORD29 /// SNORD31 / Fold change vs veh, SNHG1 /// SNORD22 /// SNORD25 /// SNORD26 /// SNORD27 /// SNORD28 /// SNORD29 /// SNORD31 / Fold change (Aza/veh), C12orf56 (ProbeSet 11735607_a_at) / Fold change (ACY-1035/veh), C12orf56 (ProbeSet 11735607_a_at) / Fold change (Aza/veh), FGFR1OP (ProbeSet 11751329_s_at) / Fold change (ACY-1035/veh), FGFR1OP (ProbeSet 11751329_s_at) / Fold change (Aza/veh), VPS36 (ProbeSet 11739960_a_at) / Fold change (ACY-1035/veh), VPS36 (ProbeSet 11739960_a_at) / RFU SYPL1 (11715823_x_at) / Fold change /veh SYPL1 (11715823_x_at) / RFU IGFBP7 (11715501_s_at) / Fold change /veh IGFBP7 (11715501_s_at) / RFU REEP3 (11722064_at) / Fold change /veh REEP3 (11722064_at) / RFU IGLL1 (11728026_x_at) / Fold change /veh IGLL1 (11728026_x_at): dose or concentration left out as unconfirmed. Particulars: ProbeSet 11716999_a_at; LIST D.

Here are results for one molecule from PMC5218480 (PLoS ONE, 2017).

In the case of `Nc1ncn([C@@H]2O[C@H](CO)[C@@H](O)[C@H]2O)c(=O)n1` [azacitidine], the “RFU, RASA1” value worked out at 172.86 RFU.
